Source: EP0286578A1, “4,15-Disubstituted 4-androsten-3,17-diones, and process for their preparation” (SCHERING AKTIENGESELLSCHAFT, priority 1987, dated 1988)

Molecular target: T1, Aromatase (Rattus norvegicus, UniProt P22443)
T1 construct: Invantile weibliche Ratten reagieren auf PMSG (Pregnant Mare's Serum Gonadotropin)-Behandlung mit einheitlich erhöhter Steroidsynthese; from tissue; host or cells: living infantile female rats (whole animal; serum estradiol read-out)
T1 sequence (P22443 1-508): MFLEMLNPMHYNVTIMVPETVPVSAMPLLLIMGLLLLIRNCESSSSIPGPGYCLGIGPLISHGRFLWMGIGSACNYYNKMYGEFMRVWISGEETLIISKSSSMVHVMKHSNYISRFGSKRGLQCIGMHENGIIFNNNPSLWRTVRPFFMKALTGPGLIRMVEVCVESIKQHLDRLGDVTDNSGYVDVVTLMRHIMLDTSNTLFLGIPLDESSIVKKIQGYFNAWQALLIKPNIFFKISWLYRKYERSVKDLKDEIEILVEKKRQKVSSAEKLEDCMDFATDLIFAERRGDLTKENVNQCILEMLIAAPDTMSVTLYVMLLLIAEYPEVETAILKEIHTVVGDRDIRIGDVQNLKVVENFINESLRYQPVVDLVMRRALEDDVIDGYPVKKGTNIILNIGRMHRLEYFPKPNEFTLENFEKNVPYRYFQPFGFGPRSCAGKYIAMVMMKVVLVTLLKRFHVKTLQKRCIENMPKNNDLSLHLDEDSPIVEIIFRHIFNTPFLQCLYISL
Test: PMSG test in infantile female rats (serum estradiol by radioimmunoassay)
Type: in vivo, Ratte
Conditions: for Konzentration im Serum Östradiol: infantile Ratten, PMSG-stimulated, 2 x 10 mg/Tier p.o., serum 24 h after last PMSG, mean ± SD, 10 animals per group

Row | Compound | Wirksamkeit (PMSG test, oral application, dose range tested 2 x 10 mg, result in words) | Konzentration im Serum Östradiol
1 | C[C@]12CCC(=O)C(O)=C1CC[C@@H]1[C@@H]2CC[C@]2(C)C(=O)CC[C@@H]12 [A, 4-Hydroxy-4-androsten-3,17-dion] | keine Wirksamkeit | 3,45 ± 0,18 nMol/l
2 | CC[C@@H]1CC(=O)[C@@]2(C)CC[C@H]3[C@@H](CCC4=C(O)C(=O)CC[C@@]43C)[C@H]12 [B, 15β-Ethyl-4-hydroxy-4-androsten-3,17-dion] | – | 2,83 ± 0,29 nMol/l
3 | CC[C@@H]1CC(=O)[C@@]2(C)CC[C@H]3[C@@H](CCC4=C(OC(C)=O)C(=O)CC[C@@]43C)[C@H]12 [C, 4-Acetoxy-15β-ethyl-4-androsten-3,17-dion] | – | 2,34 ± 0,46 nMol/l
